Entries after “also recorded” stand apart in the source; their conditions may differ.
Key:
[1] = system: person with CYMBALTA induced loss of appetite; details: 2 mg dronabinol to forehead daily with oral CYMBALTA; 2 week course
Description: The subject topically applied 2 mg of dronabinol to their forehead daily together with the oral CYMBALTA™.

[2] = system: patient unable to swallow with loss of appetite; assay: Treatment of drug-induced anorexia and oropharyngeal dysphagia, dronabinol applied to forehead; format: in vivo, human
Description: A patient had been on dexamethasone therapy for 20 months following surgery, radiation, and chemotherapy. After tapering the dose of dexamethasone from 16 mg per day to 1.5 mg per day, the patient was unable to swallow and reported a loss of appetite. Dronabinol was administered to the patient's forehead once per day at 2.5 mg per dose. Improvement in swallowing and appetite were noted within 24 hours of the first administration.
After three weeks of continued dronabinol therapy, application was again stopped for 24 hours, resulting in the same loss of appetite and difficulty swallowing.
The effect of oral administration of dronabinol was tested after another two weeks as an alternative to the topical route of administration described above. […] Typical meals include steak, meatball sandwich and fruit drinks.
The patient had also ceased dexamethasone dosing very early on.

[3] = system: patient with cognitive impairment due to surgery; assay: Treatment of surgically induced cognitive deficits, cranially delivered dronabinol; format: in vivo, human
Excerpt: The patient described in Example 1 suffered from a co-morbid condition of cognitive impairment due to surgery to remove a frontal lobe glioblastoma multiforma. The cognitive impairment continued for two years following the surgery at which time treatment with cranially delivered dronabinol was begun.

[4] = system: person with late stage Alzheimer disease; assay: Treatment of symptoms associated with Alzheimer's disease; format: in vivo, human; details: approximately 2 mg dronabinol to forehead, then daily dosing
Description: A person diagnosed with late stage Alzheimer disease five years ago suffers from episodes of extreme agitation, aggressive behavior, and nocturnal restlessness and disorientation that is difficult for their caregiver to manage. Approximately 2 mg dronabinol was delivered cranially to their forehead.

[5] = system: patient with corneal Herpes zoster; assay: Treatment of herpetic keratitis; format: in vivo, human; details: for intraocular pressure: ganciclovir gel plus progesterone to forehead
Excerpt: A person suffered a first onset of active corneal Herpes zoster. They presented with classic Herpes Zoster symptoms including, left hemisphere unilateral skin lesions on forehead, bridge of nose area and down the nose not including the tip; left cornea dendrites, keratitis and edema; loss of functional vision, elevated intraocular pressure as high as 42 mm Hg, conjunctival irritation and redness and anesthetic cornea. There were also general body flu symptoms.
The patient was initially treated with ophthalmic prednisolone acetate 1% up to 5 times daily, ophthalmic antibiotics, non-prescription ophthalmic wetting agents, and lubrication with gels administered to the eye. Additional drug therapies included systemic oral valcyclovir as high as 2 g per day and medications to reduce intraocular pressure.
Despite the therapy, symptom flare-up was as frequent as 2 weeks to 1 month over the past 10 years. Although intraocular pressure returned to within the normal range, cataracts formed as a result of long term use of corticosteroids.
The cornea surface contour became increasingly distorted with prominent ridges. There was incursion of capillaries across the conjunctiva into the cornea, both superficially and deep. Deposition of phospholipids through a leaching process occluded the cornea with grey color deposits on about 50% of its surface.
Corneal thinning had progressed to near perforation levels which required preparation for corneal patch surgery.
At this point, 1% topical progesterone (approximately 1 mg of progesterone) was first administered as a method to keep the cornea from perforating and the tear film intact. The drug was applied to the forehead 4 times daily together with topical antibiotics and corticosteroids.
After stabilizing the cornea, antiviral treatment was begun with ganciclovir gel (0.15%; 0.15 mg of drug) applied five times daily to the forehead together with once daily progesterone (1%; 1 mg of drug) and a nightly drop of ophthalmic antibiotic. Intraocular pressure measured at the onset of ganciclovir treatment was 18 mm Hg.
The patient reported a decrease in eye strain as a result of an improvement in tear film. […] Over the next two weeks, inflammation was further reduced and visual acuity increased somewhat when the head was tilted back. During the first full month of treatment, the affected eye generally felt comfortable. There was a lack of inflammation, and some vision returned to the threshold of functionality. Intraocular pressure remained normal in the range of 16 mm Hg.
There was modest improvement in reading the eye chart, and corneal staining due to defects was minimized. Intraocular pressure remained normal in both eyes at about 16 mm Hg during this period. The phospholipid deposits further reduced in density and began to give the appearance of lesser areas of concentrations. Nearly functional vision could be achieved by positioning the head back and viewing through the central cornea. The residual clear area of the cornea became more so and less inflamed. Through the end of the second month, improvement to the cornea accelerated. The pupil was now clearly visible and more light was entering the eye.
The patient was examined regularly by an ophthalmologist, and after three and one half months of treatment. The intraocular pressure was normal at 12 mm Hg. […] Intraocular pressure has remained in the same range for more than one year.

[6] = system: subject with left-side trigeminal neuralgia and facial droop; assay: Treatment of trigeminal neuralgia and facial palsy; format: in vivo, human; details: progesterone 1% (1 mg) four times daily to forehead followed by 0.15 g ganciclovir (0.15% formulation) up to five times daily
Description: A subject presented with left-side trigeminal neuralgia and left side facial droop of 10 years duration. Therapy was initiated by topically applying progesterone (1% by weight) equivalent to 1 mg four times daily to the patient's forehead. This was followed by application of 0.15 g ganciclovir (as a 0.15% by weight formulation) up to five times daily.

person = assay: Rapid anti-anxiety treatment; format: in vivo, human; details: 1 mg midazolam to forehead
Description: A person applied 1 mg of midazolam to their forehead on three separate occasions. […] These effects lasted for 4 to 6 hours after application of the drug.

[7] = system: dogs with mucus discharge from the eyes; assay: Treatment of dry eye in domestic animals; format: in vivo, dog; details: bulldog; tacrolimus directly in the eye
Excerpt: A puggle presented with mucus discharge from the eyes. […] The owner reported that the dog has this problem spring and fall, which indicates it is allergic seasonal rhinitis. The reported use took place in the fall.
A bulldog diagnosed with Sjogren's syndrome had mucus discharge from the eyes.

CCCCCc1cc(O)c2c(c1)OC(C)(C)[C@@H]1CCC(C)=C[C@@H]21 (relative stereo) [dronabinol, (6aR-trans)-6a,7,8,10a-tetrahydro-6,6,9-trimethyl-3-pentyl-6H-dibenzo[b,d]pyran-1-ol]
prevention of CYMBALTA induced loss of appetite [1]: prevented the CYMBALTA™ induced loss of appetite | appetite and swallowing after missing dronabinol therapy ([2]; after missing one day of dronabinol therapy): decrease in appetite and difficulty swallowing liquids | dose requirement on continued treatment ([2]; after one year of cranial dosing with challenge stops and restarts): No increase in dose has been required; also recorded: daily dosing is necessary for continued effectiveness | appetite and swallowing (patient report) ([2]; dronabinol 2.5 mg applied to forehead, four weeks, restarts and single rescue doses): healthy appetite and no problems swallowing; also recorded: normal appetite and swallowing after one day; also recorded: complete reversal of symptoms within about two hours; also recorded: rescued again by single dose applied cranially | time to improvement in swallowing and appetite ([2]; dronabinol 2.5 mg per dose to forehead once per day, after first administration): ≤ 24 h | swallowing and chewing under oral administration ([2]; oral 2.5 mg dronabinol instead of topical, within one day): difficulty swallowing and chewing | scar tissue around the area of surgery as detected by imaging [3]: noticeable decrease in scar tissue | cognitive function (noted by physicians) ([3]; begun two years after surgery): dramatic improvement in cognitive function | agitation, aggressive behavior, nocturnal restlessness symptoms [4]: improvement in their symptoms was observable within two hours; also recorded: less frequent nocturnal disturbances; also recorded: additional significantly noticeable improvement in their symptoms

Nc1nc(O)c2ncn(COC(CO)CO)c2n1 [ganciclovir]
inflammation, visual acuity and state of affected eye ([5]; ganciclovir gel 0.15% (0.15 mg) five times daily plus progesterone 1% (1 mg) once daily to forehead, nightly ophthalmic antibiotic, 1 week to 3.5 months): less inflammation and a slight improvement in visual acuity; also recorded: some functional vision was attained; also recorded: stable and normalizing | intraocular pressure ([5]; after three and one half months): 12 mm Hg | intraocular pressure ([5]; both eyes, examination period up to third month): about 16 mm Hg | intraocular pressure ([5]; first full month of treatment): ~16 mm Hg | facial muscles contracted for 10 years [6]: relaxation of facial muscles

Cc1ncc2n1-c1ccc(Cl)cc1C(c1ccccc1F)=NC2 [midazolam]
duration of effects (person): 4 to 6 h | effect produced (person): mild sedation and anti-anxiety | time to response (person; three separate occasions): ≤ 5 min

C=CC[C@@H]1/C=C(\C)C[C@H](C)C[C@H](OC)[C@H]2O[C@@](O)(C(=O)C(=O)N3CCCC[C@H]3C(=O)O[C@H](/C(C)=C/[C@@H]3CC[C@@H](O)[C@H](OC)C3)[C@H](C)[C@@H](O)CC1=O)[C@H](C)C[C@@H]2OC [tacrolimus]
mucus discharge from the eyes [7]: without completely stopping the discharge
